Paper PMC3478992, “Cloning and characterization of a novel 2-ketoisovalerate reductase from the beauvericin producer Fusarium proliferatum LF061” (BMC Biotechnology, 2012)

Molecular target: T1, KivRFp (2-ketoisovalerate reductase) (Fusarium proliferatum, UniProt I3VQI5)
T1 construct: full length, 452 residues, 52 kDa, N-terminal His-tag (pET28a), codon-optimised synthetic gene, E. coli BL21(DE3), Ni-NTA purified
Experiment: spectrophotometric NADPH oxidation at […] nm
Format: biochemical
Settings: 0.7 mM 2-Kiv, 50 mM sodium phosphate pH 7.0, 35 °C

T1 sequence (I3VQI5 entry or part of it): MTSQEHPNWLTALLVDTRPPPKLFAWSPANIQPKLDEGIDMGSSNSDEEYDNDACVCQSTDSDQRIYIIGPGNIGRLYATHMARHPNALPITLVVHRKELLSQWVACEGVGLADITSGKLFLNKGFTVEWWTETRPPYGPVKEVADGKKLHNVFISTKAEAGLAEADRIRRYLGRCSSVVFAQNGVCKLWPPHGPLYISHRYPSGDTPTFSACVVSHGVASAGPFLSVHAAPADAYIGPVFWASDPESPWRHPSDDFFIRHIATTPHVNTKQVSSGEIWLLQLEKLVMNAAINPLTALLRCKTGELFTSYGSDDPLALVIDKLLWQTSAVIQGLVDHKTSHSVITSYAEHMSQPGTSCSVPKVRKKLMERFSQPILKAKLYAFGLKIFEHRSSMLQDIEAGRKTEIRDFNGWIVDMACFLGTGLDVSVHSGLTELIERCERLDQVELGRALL

Row | Structure (SMILES) | spectrophotometric NADPH oxidation at 340 nm (0.29 mM NADPH) | spectrophotometric NADPH oxidation at 340 nm
1 | CC(C)C(=O)C(=O)O [2-Kiv] | The enzyme exhibited the highest activity towards 2-Kiv as substrate | –
2 | NC(=O)C1=CN([C@@H]2O[C@H](COP(=O)(O)OP(=O)(O)OC[C@H]3O[C@@H](n4cnc5c(N)ncnc54)[C@H](OP(=O)(O)O)[C@@H]3O)[C@@H](O)[C@H]2O)C=CC1 [NADPH] | – | KivRFp showed higher coenzyme specificity with respect to NADPH than NADH
